Data from patent US8980911B2, “Heterocyclic compounds as protein kinase inhibitors” (Daiichi Sankyo Company, Limited, priority 2011, dated 2015).
pIC50: −log10 of the molar value.

How the values were obtained:
Assay type in all cases: biochemical
JAK2 = target: T1, JAK2 (Homo sapiens, UniProt O60674); test: In vitro enzyme assay (cell-free HTRF kinase assay), JAK2; settings: catalytic domain, His-tag; ATP 10 μM, SRCtide 25 nM, reaction 30 min
T1 construct: All enzymes only contain the catalytic domain; His (N); purchased Carna Bioscience, Inc; host or cells: baculovirus expression system
Description: (§1) Kinase buffer [50 mM HEPES (pH 7.5), 1 mM EGTA, 10 mM MgCl2, 2 mM DTT and 0.01% Tween-20) was prepared and dilutions of a compound of formula (I) and other reagents were subsequently made in it. Two times concentrated compound of formula (I) solution: A compound of formula (I) was diluted to 100-fold final concentration in DMSO, followed by 50-fold dilution with Kinase buffer (1% DMSO final concentration). Four times concentrated Substrate/ATP mix solution: Biotin-SRCtide and ATP were diluted to 4-fold final concentration in Kinase buffer. Biotin-SRCtide solution (purchased from Anaspec) was mixed with ATP solution (1:1). Four times concentrated Enzyme solution: JAK1 or JAK2 or JAK3 or TYK2 enzyme [Human baculo virus expressed JAK1, JAK2, JAK3 and TYK2 were purchased from Carna Bioscience, Inc. All enzymes only contain the catalytic domain. JAK1 (aa 850-1154) and TYK2 (aa 871-1187) are expressed with an N-terminally fused GST-tag, and JAK2 and JAK3 with an N-terminally fused His-tag] was diluted to 4-fold final concentration in Kinase buffer and always kept on ice. Detection buffer: LANCE detection buffer (10 times concentrated) was diluted 10-fold in H2O. Four times concentrated stop solution: EDTA was diluted to a concentration of 40 mM in detection buffer. Four times concentrated ULight/Eu-antibody (from Perkin Elmer) mix solution: ULight-Streptavidin was diluted to a concentration of 100 nM (25 ng/mL final concentrations) and Eu-anti-phospho-Tyrosine (PT66) (from Perkin Elmer) was diluted to a concentration of 8 nM (2 ng/mL final concentration) in detection buffer.
(§2) Cell-free in vitro kinase assay was performed in 384 well plates. Two times concentrated compound solution (5 μL) was pipetted into a HTS 384SV Small Volume Plate. Four times concentrated Substrate/ATP mix (2.5 μL) solution was added along with 4 times concentrated Enzyme solution (2.5 μL). Plate was covered with TopSeal-A and incubated at room temperature for indicated time (Table 3). Four times concentrated Stop solution (5 μL, 10 mM final concentration) was added and incubated for 5 minutes at room temperature. Four times concentrated ULight/Eu-antibody mix solution (5 μL) was added and again plate was covered with TopSeal and incubated overnight at 4° C. TopSeal was removed and HTRF signal was measured at 615 nm and […] (excitation at 320 or 340 nm) on Tecan M1000 Multi mode plate reader. Ratio (665 nm/615 nm)×10^4 was calculated and IC50 values were deduced from Graph-pad prism 4.2.

JAK1 = target: T2, JAK1 (Homo sapiens, UniProt P23458); test: In vitro enzyme assay (cell-free HTRF kinase assay), JAK1; settings: catalytic domain aa 850-1154, GST-tag; ATP 60 μM, SRCtide 400 nM, reaction 120 min
T2 construct: JAK1 (aa 850-1154) and TYK2 (aa 871-1187) are expressed with an N-terminally fused GST-tag; GST (N); purchased Carna Bioscience, Inc; host or cells: baculovirus expression system
Description: as §1, §2

JAK3 = target: T3, JAK3 (Homo sapiens, UniProt P52333); test: In vitro enzyme assay (cell-free HTRF kinase assay), JAK3; settings: catalytic domain, His-tag; ATP 3 μM, SRCtide 100 nM, reaction 30 min
T3 construct: All enzymes only contain the catalytic domain; His (N); purchased Carna Bioscience, Inc; host or cells: baculovirus expression system
Description: as §1, §2

T1 sequence (O60674 849-1124 limits assumed): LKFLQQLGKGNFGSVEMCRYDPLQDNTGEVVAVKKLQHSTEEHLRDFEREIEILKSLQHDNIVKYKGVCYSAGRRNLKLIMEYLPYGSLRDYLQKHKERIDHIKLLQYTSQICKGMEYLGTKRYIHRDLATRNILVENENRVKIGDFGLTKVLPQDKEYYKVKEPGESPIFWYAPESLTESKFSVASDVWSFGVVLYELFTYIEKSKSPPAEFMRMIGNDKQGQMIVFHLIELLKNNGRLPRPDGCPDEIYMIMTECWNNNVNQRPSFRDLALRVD
T2 sequence (P23458 850-1154): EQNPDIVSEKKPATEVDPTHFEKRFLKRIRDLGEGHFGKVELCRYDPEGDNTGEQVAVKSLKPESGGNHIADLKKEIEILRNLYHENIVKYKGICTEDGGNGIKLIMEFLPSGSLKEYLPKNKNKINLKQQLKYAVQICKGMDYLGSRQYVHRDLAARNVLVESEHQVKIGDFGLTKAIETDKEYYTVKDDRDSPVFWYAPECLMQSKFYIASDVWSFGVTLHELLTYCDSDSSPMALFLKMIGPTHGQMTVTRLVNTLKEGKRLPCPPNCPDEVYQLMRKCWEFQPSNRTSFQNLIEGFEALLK
T3 sequence (P52333 822-1111 limits assumed): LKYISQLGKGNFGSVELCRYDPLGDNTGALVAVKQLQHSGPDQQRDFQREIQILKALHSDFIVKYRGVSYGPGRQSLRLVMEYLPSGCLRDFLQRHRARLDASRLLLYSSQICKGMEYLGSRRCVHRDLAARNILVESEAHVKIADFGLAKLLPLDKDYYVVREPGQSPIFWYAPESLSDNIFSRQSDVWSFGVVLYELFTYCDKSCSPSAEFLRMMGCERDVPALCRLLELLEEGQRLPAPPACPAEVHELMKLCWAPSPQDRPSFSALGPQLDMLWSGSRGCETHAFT

Row | Compound | pIC50 (JAK2) | pIC50 (JAK1) | pIC50 (JAK3)
1 | Nc1cc(Cl)c(C(=O)c2c[nH]c3cnccc23)c(Cl)c1 [Compound No. 3, (4-Amino-2,6-dichlorophenyl)(1H-pyrrolo[2,3-c]pyridin-3-yl)methanone] | > 6.30 | > 6.00 | > 6.00
2 | O=C(c1c(Cl)cccc1Cl)c1c[nH]c2c(NC(=O)C3CC3)nccc12 [Compound No. 5, N-[3-(2,6-Dichlorobenzoyl)-1H-pyrrolo[2,3-c]pyridin-7-yl]cyclopropanecarboxamide] | > 6.30 | > 6.30 | > 6.30
3 | N#Cc1cc(Cl)c(C(=O)c2c[nH]c3cnccc23)c(Cl)c1 [Compound No. 6, 3,5-Dichloro-4-(1H-pyrrolo[2,3-c]pyridin-3-ylcarbonyl)benzonitrile] | > 6.30 | > 6.30 | > 6.30
4 | O=C(c1c(F)cccc1Cl)c1c[nH]c2c(NC(=O)C3CC3)nccc12 [Compound No. 11, N-[3-(2-Chloro-6-fluorobenzoyl)-1H-pyrrolo[2,3-c]pyridin-7-yl]cyclopropanecarboxamide] | > 7.00 | > 6.30 | > 7.00
5 | CNC(=O)c1cc(Cl)c(C(=O)c2c[nH]c3c(NC(=O)C4CC4)nccc23)c(Cl)c1 [Compound No. 12, 3,5-Dichloro-4-({7-[(cyclopropylcarbonyl)amino]-1H-pyrrolo[2,3-c]pyridin-3-yl}carbonyl)-N-methylbenzamide] | > 6.30 | > 6.30 | > 7.00
6 | CCNC(=O)c1cc(Cl)c(C(=O)c2c[nH]c3c(NC(=O)C4CC4)nccc23)c(Cl)c1 [Compound No. 13, 3,5-Dichloro-4-({7-[(cyclopropylcarbonyl)amino]-1H-pyrrolo[2,3-c]pyridin-3-yl}carbonyl)-N-ethylbenzamide] | > 6.30 | > 6.00 | > 6.30
7 | COCCNC(=O)c1cc(Cl)c(C(=O)c2c[nH]c3c(NC(=O)C4CC4)nccc23)c(Cl)c1 [Compound No. 16, 3,5-Dichloro-4-({7-[(cyclopropylcarbonyl)amino]-1H-pyrrolo[2,3-c]pyridin-3-yl}carbonyl)-N-(2-methoxyethyl)benzamide] | > 6.30 | > 6.00 | > 6.30
8 | O=C(c1c(Cl)cccc1Cl)c1c[nH]c2cnc(NC(=O)C3CC3)cc12 [Compound No. 18, N-[3-(2,6-Dichlorobenzoyl)-1H-pyrrolo[2,3-c]pyridin-5-yl]cyclopropanecarboxamide] | > 7.00 | > 6.00 | > 6.00
9 | O=C(c1c(F)cccc1Cl)c1c[nH]c2cnc(NC(=O)C3CC3)cc12 [Compound No. 19, N-[3-(2-Chloro-6-fluorobenzoyl)-1H-pyrrolo[2,3-c]pyridin-5-yl]cyclopropanecarboxamide] | > 7.30 | > 6.30 | > 6.30
10 | O=C(c1c(Cl)cc(Br)cc1Cl)c1c[nH]c2c(NC(=O)C3CC3)nccc12 [Compound No. 22, N-[3-(4-Bromo-2,6-dichlorobenzoyl)-1H-pyrrolo[2,3-c]pyridin-7-yl]cyclopropanecarboxamide] | > 6.00 | > 6.30 | > 6.30
11 | Cc1noc(C)c1-c1cc(Cl)c(C(=O)c2c[nH]c3c(NC(=O)C4CC4)nccc23)c(Cl)c1 [Compound No. 23, N-{3-[2,6-Dichloro-4-(3,5-dimethyl-1,2-oxazol-4-yl)benzoyl]-1H-pyrrolo[2,3-c]pyridin-7-yl}cyclopropanecarboxamide] | > 6.30 | > 6.00 | > 6.30
12 | Nc1cc(Cl)c(C(=O)c2c[nH]c3c(NC(=O)C4CC4)nccc23)c(Cl)c1 [Compound No. 26, N-[3-(4-Amino-2,6-dichlorobenzoyl)-1H-pyrrolo[2,3-c]pyridin-7-yl]cyclopropanecarboxamide] | > 6.30 | > 6.30 | > 7.00
13 | CC(=O)Nc1cc(Cl)c(C(=O)c2c[nH]c3c(NC(=O)C4CC4)nccc23)c(Cl)c1 [Compound No. 27, N-{3-[4-(Acetylamino)-2,6-dichlorobenzoyl]-1H-pyrrolo[2,3-c]pyridin-7-yl}cyclopropanecarboxamide] | > 6.30 | > 6.00 | > 7.00
14 | O=C(NCCOCCO)c1cc(Cl)c(C(=O)c2c[nH]c3c(NC(=O)C4CC4)nccc23)c(Cl)c1 [Compound No. 29, 3,5-Dichloro-4-({7-[(cyclopropylcarbonyl)amino]-1H-pyrrolo[2,3-c]pyridin-3-yl}carbonyl)-N-[2-(2-hydroxyethoxy)ethyl]benzamide] | > 6.00 | > 6.00 | > 6.30
15 | O=C(NCCCO)c1cc(Cl)c(C(=O)c2c[nH]c3c(NC(=O)C4CC4)nccc23)c(Cl)c1 [Compound No. 30, 3,5-Dichloro-4-({7-[(cyclopropylcarbonyl)amino]-1H-pyrrolo[2,3-c]pyridin-3-yl}carbonyl)-N-(3-hydroxypropyl)benzamide] | > 6.30 | > 6.30 | > 6.30
16 | O=C(NCCCN1CCOCC1)c1cc(Cl)c(C(=O)c2c[nH]c3c(NC(=O)C4CC4)nccc23)c(Cl)c1 [Compound No. 31, 3,5-Dichloro-4-({7-[(cyclopropylcarbonyl)amino]-1H-pyrrolo[2,3-c]pyridin-3-yl}carbonyl)-N-[3-(morpholin-4-yl)propyl]benzamide] | > 6.00 | > 6.30 | > 6.30
17 | O=C(NCC(O)CO)c1cc(Cl)c(C(=O)c2c[nH]c3c(NC(=O)C4CC4)nccc23)c(Cl)c1 (stereo not drawn) [Compound No. 32, 3,5-Dichloro-4-({7-[(cyclopropylcarbonyl)amino]-1H-pyrrolo[2,3-c]pyridin-3-yl}carbonyl)-N-(2,3-dihydroxypropyl)benzamide] | > 6.30 | > 6.30 | > 7.30
18 | CN(C)CCNC(=O)c1cc(Cl)c(C(=O)c2c[nH]c3c(NC(=O)C4CC4)nccc23)c(Cl)c1 [Compound No. 33, 3,5-Dichloro-4-({7-[(cyclopropylcarbonyl)amino]-1H-pyrrolo[2,3-c]pyridin-3-yl}carbonyl)-N-[2-(dimethylamino)ethyl]benzamide] | > 7.00 | > 7.00 | > 7.00
19 | O=C(NCCN1CCCCC1)c1cc(Cl)c(C(=O)c2c[nH]c3c(NC(=O)C4CC4)nccc23)c(Cl)c1 [Compound No. 34, 3,5-Dichloro-4-({7-[(cyclopropylcarbonyl)amino]-1H-pyrrolo[2,3-c]pyridin-3-yl}carbonyl)-N[2-(piperidin-1-yl)ethyl]benzamide] | > 6.30 | > 6.30 | > 6.30
20 | COC(=O)CNC(=O)c1cc(Cl)c(C(=O)c2c[nH]c3c(NC(=O)C4CC4)nccc23)c(Cl)c1 [Compound No. 35, Methyl N-[3,5-dichloro-4-({7-[(cyclopropylcarbonyl)amino]-1H-pyrrolo[2,3-c]pyridin-3-yl}carbonyl)benzoyl]glycinate] | > 6.30 | > 6.30 | > 6.30
21 | O=C(O)CNC(=O)c1cc(Cl)c(C(=O)c2c[nH]c3c(NC(=O)C4CC4)nccc23)c(Cl)c1 [Compound No. 36, N-[3,5-Dichloro-4-({7-[(cyclopropylcarbonyl)amino]-1H-pyrrolo[2,3-c]pyridin-3-yl}carbonyl)benzoyl]glycine] | > 7.00 | > 6.30 | > 7.30
22 | N#Cc1cc(Cl)c(C(=O)c2c[nH]c3c(NC(=O)C4CC4)nccc23)c(Cl)c1 [Compound No. 39, N-[3-(2,6-Dichloro-4-cyanobenzoyl)-1H-pyrrolo[2,3-c]pyridin-7-yl]cyclopropanecarboxamide] | > 7.30 | > 6.30 | > 7.30
23 | CC(=O)Nc1nccc2c(C(=O)c3c(Cl)cc(C(=O)NCCN4CCCCC4)cc3Cl)c[nH]c12 [Compound No. 42, 4-{[7-(Acetylamino)-1H-pyrrolo[2,3-c]pyridin-3-yl]carbonyl}-3,5-dichloro-N-[2-(piperidin-1-yl)ethyl]benzamide] | > 6.00 | > 6.00 | > 6.00
